We go through seven molecules from patent US9512139B2, “Conformationally constrained, fully synthetic macrocyclic compounds” (POLYPHOR AG, priority 2009, dated 2016).

The structures appear in SMILES notation.

In series [1] the target is T1, Motilin Receptor (Homo sapiens, UniProt O43193).
T1 construct: host or cells: Ca2+ optimized hematopoietic cell lines (rat)
Briefly: Ca2+ assay (FLIPR) for the GPCR motilin receptor, agonist and antagonist mode. In kind it is cell-based. Particulars: antagonist mode. The procedure: Ca^2+ Assays for the GPCRs Motilin Receptor, Prostaglandin F (FP) Receptor, 5-hydroxytryptamine 2B (5-HT2B) Receptor, and Purinoreceptor P2Y1
Assays were performed using on a FLIPR^TETRA fluorometric imaging plate reader (Molecular Devices) with ScreenWorks Version 2 (Molecular Devices) as device operating and data analysis software.
Dose dependent agonist and antagonist activities were determined. Percentage activation and percentage inhibition values were determined.
Percentage activation was determined upon initial addition of the sample compounds followed by 10 minutes incubation at 25° C. Following compound incubation, reference agonists were added at EC80 to determine percentage inhibition.
Reference agonists were purchased from reputable commercial vendors and prepared according to each ligand's specifications. All handling of ligands were done to ensure proper control throughout the experiments.
Example compounds were weighed on a Microbalance (Mettler MX5) and dissolved in 100% DMSO to a final concentration of 2.5 mM and subsequently diluted into the assay buffer.
The Assay buffer was a supplemented HBSS (Hank's Balanced Salt Solution). HBSS was supplemented with 20 mM HEPES (4-(2-hydroxyethyl)-piperazin-1-ethansulfonic acid) and 2.5 mM Probenecid (Sigma P8761).
GPCR assays were performed using Ca^2+ optimized hematopoietic cell lines (rat) with cultures never exceeding 90% confluency. […] After seeding, the assay plates were incubated for forty-five (45) minutes at room temperature. After room temperature incubation, the assay plates were incubated at 37° C. 5% CO2 for 24 hours prior to assaying.
All GPCR assays were performed using Fluo-8 Ca^2+ dye. Ca^2+ dye was prepared at 1× dye concentration in GPCR assay buffer. After 24 hours of incubation, cells were washed with GPCR assay buffer, and then Ca^2+-dye (100 μL/well) was added.
The plates were incubated for 90 minutes at 30° C. 5% CO2 prior to FLIPR assay.
Compound plates were prepared to add 50 μL/well during the agonist assay mode. During the FLIPR assay, 50 μL/well from the compound plate was diluted 3-fold into the existing 100 μL/well from the dye loading step. Therefore all compounds were prepared as 3× the final concentration desired in the assay.
After completion of the first single addition assay run, assay plate was removed from the FLIPR Tetra and placed at 25° C. for seven (7) minutes before antagonist assay.
Using the EC80 values determined during the agonist assay, all pre-incubated sample compound and reference antagonist (if applicable) wells were stimulated at the EC80 of the reference agonist. As reference ligands for the first three assays their obvious natural ligands motilin, prostaglandin F2α, and serotonin (5-HT, 5-Hydroxytryptamine) were used; and for the P2Y1 assay 2MeSATP (2-methyl-thio-adeno-sine 5′-triphosphate, i.e. (2R,3S,4R)-5-(6-amino-2-methylsulfanyl-purin-9-yl)-3,4-dihydroxy-tetrahydrofuran-2-yl]methyl (hydroxy-phosphonooxy-phosphoryl)hydrogen phosphate) was applied.
After the addition of the reference agonist fluorescence was monitored for 180 sec using FLIPR Tetra.
Data Analysis and Results:
From the FLIPR data, with negative control correction enabled, the maximum statistic for each well was exported and percentage activation relative to Emax control was calculated.

The nature of series [2]: Metabolic stability assay, CD-1 mouse microsomes. Type of series: in vitro ADME. Particulars: CD-1, mouse, microsomes; for Metabolic Stability T½ [min] mouse / Metabolic Stability 60 min mouse [% remain.]: both, 10 µM; for Metabolic Stability 60 min mouse [% remain.]: 1 h.
Series [3] can be described thus: in vitro. In kind it is in vitro ADME, human. As to conditions: human, plasma, 10 µM; for Plasma Stability 240 min hum [% remain.]: 4 h.
Method: (§1) Example compounds were dissolved in DMSO/H2O 90:10 to a final concentration of 10 mM for plasma stability determination and metabolic stability determination.
(§2) Human plasma (3-5 donors, Blutspendedienst SRK, Basel) and CD-1 mouse plasma (mixed gender pool >50 animals, Innovative Research, CA, USA) are both sodium citrate stabilized. The assay is performed in triplicates at 10 μM compound concentration and 37° C. Samples are taken at 0, 15, 60, and 240 minutes and stopped by precipitation with 2 volumes of acetonitrile. The supernatant is collected, evaporated and reconstituted in a 5% acetonitrile solution to be analyzed by HPLC/MS/MS. The resulting peak area counts are expressed in percent of the 0 value and used to determine the endpoint stability in % and the half life in minutes. In order to monitor assay integrity the degradation of propantheline is assayed with every experimental set.
The nature of series [4]: Metabolic stability assay, human microsomes. In kind it is in vitro ADME. Particulars: human, microsomes; for half-life at 10 µM: both sexes; for Metabolic Stability 60 min hum [% remain.] / Metabolic Stability T½ [min] hum: both, 10 µM; for Metabolic Stability 60 min hum [% remain.]: 1 h.
A short description of series [5]: in vitro. Type of series: in vitro ADME, mouse. Particulars: both, CD-1, mouse, plasma, 10 µM; for Plasma Stability 240 min mouse [% remain.]: 4 h.
Method: as §1, §2
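Wherever Plasma Stability 240 min mouse [% remain.] is given: sodium citrate stabilized mouse plasma, parent compound quantified by HPLC/MS/MS relative to its peak area at time zero, run in triplicate.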
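Wherever Plasma Stability T½ [min] mouse is given: sodium citrate stabilized mouse plasma, parent compound quantified by HPLC/MS/MS relative to its peak area at time zero, run in triplicate.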

T1 sequence (O43193 whole entry, species assumed): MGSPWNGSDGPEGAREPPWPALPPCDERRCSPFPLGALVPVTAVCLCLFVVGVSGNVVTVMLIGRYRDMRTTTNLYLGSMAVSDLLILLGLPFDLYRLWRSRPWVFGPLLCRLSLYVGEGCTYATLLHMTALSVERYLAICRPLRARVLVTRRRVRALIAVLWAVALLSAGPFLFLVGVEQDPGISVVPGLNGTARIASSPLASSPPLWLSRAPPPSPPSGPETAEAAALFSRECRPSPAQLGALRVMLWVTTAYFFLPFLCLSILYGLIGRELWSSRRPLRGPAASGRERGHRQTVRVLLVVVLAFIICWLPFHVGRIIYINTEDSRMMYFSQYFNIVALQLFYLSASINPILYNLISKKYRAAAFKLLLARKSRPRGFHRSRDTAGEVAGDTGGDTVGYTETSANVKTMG

As to `CN(C)CCNC(=O)[C@@H]1CCC(=O)N(C)CC(=O)N2C[C@@H](NC(=O)Nc3cccc4ccccc34)C[C@H]2COc2ccc(F)cc2C(=O)N1C` [Ex. 482, (2S,11S,19aS)-N-[2-(dimethylamino)ethyl]-15-fluoro-7,12-dimethyl-2-{[(1-naphthylamino)carbonyl]amino}-5,8,13-trioxo-2,3,6,7,8,9,10, 11,12,13,19,19a-dodecahydro-1H,5H-pyrrolo [2,1-c] [1,4,7,12]benzoxatriazacyclopentadecine-11-carboxamide], in series [1], the IC50 stood at 1.1 µM and the inhibition at 10 µM stood at 62%. In addition, in series [2], the Metabolic Stability T½ [min] mouse was more than 60 min and the “Metabolic Stability 60 min mouse [% remain.]” value is recorded as 84 % remain. In series [3], the Plasma Stability T½ [min] hum is more than 240 min and the “Plasma Stability 240 min hum [% remain.]” value is listed as 100 % remain. For the same molecule, in series [4], the half-life at 10 µM is 0.367 h and the “Metabolic Stability 60 min hum [% remain.]” value came to 11 % remain. In series [5], the Plasma Stability T½ [min] mouse is more than 240 min and the “Plasma Stability 240 min mouse [% remain.]” value is listed as 100 % remain.

In series [1], `CN1CC(=O)N2CC(NC(=O)Cc3cccc4ccccc34)CC2COc2ccc(F)cc2C(=O)N(C)C(C(=O)NCCNc2ccccn2)CCC1=O` [Ex. 485, [2S,11S,19aS)-15-fluoro-7,12-dimethyl-2-{[2-(1-naphthyl)acetyl]amino}-5,8,13-trioxo-N-[2-(2-pyridinylamino)ethyl]-2,3,6,7,8,9,10,11,12,13,19,19a-dodecahydro-1H,5H-pyrrolo[2,1-c] [1,4,7,12]benzoxatriaza-cyclopentadecine-11-carboxamide] registered an IC50 of 0.28 µM and an inhibition at 10 µM of 93%. This molecule came in with a half-life at 10 µM in series [2] (both sexes) of 0.283 h. Besides, the “Metabolic Stability 60 min mouse [% remain.]” value in series [2] is given as 11 % remain. Further, in series [3], the Plasma Stability T½ [min] hum is more than 240 min and the “Plasma Stability 240 min hum [% remain.]” value is on record as 100 % remain. Further, in series [4], the half-life at 10 µM amounted to 0.233 h and the “Metabolic Stability 60 min hum [% remain.]” value is 8 % remain. In addition, in series [5], the Plasma Stability T½ [min] mouse is more than 240 min and the “Plasma Stability 240 min mouse [% remain.]” value was 99 % remain.

Consider `CN(C)CCNC(=O)[C@@H]1CCC(=O)N(C)CC(=O)N2C[C@@H](NCCc3cccc4ccccc34)C[C@H]2COc2ccc(F)cc2C(=O)N1C` [Ex. 486, (2S,11S,19aS)-N-[2-(dimethylamino)ethyl]-15-fluoro-7,12-dimethyl-2-{[2-(1-naphthyl)ethyl]amino}-5,8,13-trioxo-2,3,6,7,8,9,10,11,12,13,19,19a-dodecahydro-1H,5H-pyrrolo[2,1-c] [1,4,7,12]benzoxatri-azacyclopentadecine-11-carboxamide], for which, in series [1], the IC50 came out at 0.18 µM and at 10 µM the inhibition was 93%. In series [2], the Metabolic Stability T½ [min] mouse was more than 60 min and the “Metabolic Stability 60 min mouse [% remain.]” value was found to be 100 % remain. For the same molecule, in series [3], the Plasma Stability T½ [min] hum was more than 240 min and the “Plasma Stability 240 min hum [% remain.]” value turned out to be 100 % remain. For the same molecule, in series [4], the half-life at 10 µM stood at 0.383 h and the “Metabolic Stability 60 min hum [% remain.]” value stood at 13 % remain. Further, in series [5], the Plasma Stability T½ [min] mouse was more than 240 min and the “Plasma Stability 240 min mouse [% remain.]” value is reported as 98 % remain.

In series [1], `CN(C)CCNC(=O)[C@@H]1CCC(=O)N(C)CC(=O)N2C[C@@H](NC(=O)Cc3cccc4ccccc34)C[C@H]2COc2ccc(F)cc2C(=O)N1C` [Ex. 49, (2S,11S,19aS}-N-[2-(dimethylamino)ethyl]-15-fluoro-7,12-dimethyl-2-{[2-(1-naphthyl)acetyl]amino}-5,8,13-trioxo-2,3,6,7,8,9,10,11,12,13,19,19a-dodecahydro-1H,5H-pyrrolo[2,1-c] [1,4,7,12] benzoxatriazacyclopentadecine-11-carboxamide] gave an IC50 of 0.16 µM and an inhibition at 10 µM of 98%. Further, in series [2], the Metabolic Stability T½ [min] mouse is more than 60 min and the “Metabolic Stability 60 min mouse [% remain.]” value came out at 83 % remain. In addition, in series [3], the Plasma Stability T½ [min] hum was more than 240 min and the “Plasma Stability 240 min hum [% remain.]” value amounted to 83 % remain. Also, in series [4], the half-life at 10 µM is 0.4 h and the “Metabolic Stability 60 min hum [% remain.]” value was 10 % remain. In addition, in series [5], the Plasma Stability T½ [min] mouse is more than 240 min and the “Plasma Stability 240 min mouse [% remain.]” value came to 96 % remain.

Regarding `CN(C)CCNC(=O)[C@@H]1CCC(=O)N(C)CC(=O)N2C[C@@H](NC(=O)Cc3c[nH]c4ccccc34)C[C@H]2COc2ccc(F)cc2C(=O)N1C` [Ex. 11, (2S,11S,19aS)-N-[2-(dimethylamino)ethyl]-15-fluoro-2-{[2-(1H-indol-3-yl)acetyl]amino}-7,12-dimethyl-5,8,13-trioxo-2,3,6,7,8,9,10,11,12,13, 19,19a-dodecahydro-1H,5H-pyrrolo[2,1-c] [1,4,7,12]benzoxatriazacyclopentadecine-11-carboxamide], in series [1], the IC50 was determined as 0.78 µM and at 10 µM the inhibition was 79%. Also, in series [2], the Metabolic Stability T½ [min] mouse was more than 60 min and the “Metabolic Stability 60 min mouse [% remain.]” value is 77 % remain. In series [3], the Plasma Stability T½ [min] hum is more than 240 min and the “Plasma Stability 240 min hum [% remain.]” value was found to be 100 % remain. Besides, in series [4], the Metabolic Stability T½ [min] hum was more than 60 min and the “Metabolic Stability 60 min hum [% remain.]” value is 74 % remain. In series [5], the Plasma Stability T½ [min] mouse was more than 240 min and the “Plasma Stability 240 min mouse [% remain.]” value stood at 100 % remain.

On to `CN1CC(=O)N2C[C@@H](NC(=O)Cc3cccc4ccccc34)C[C@H]2COc2ccc(F)cc2C(=O)N(C)[C@H](C(=O)NCCN)CCC1=O` [Ex. 483, (2S,11S,19aS)-N-(2-aminoethyl)-15-fluoro-7,12-dimethyl-2-{[2-(1-naphthyl)acetyl]amino)-5,8,13-trioxo-2,3,6,7,8,9,10,11,12, 13,19,19a-dodecahydro-1H,5H-pyrrolo [2,1-c] [1,4,7,12]benzoxatriazacyclopentadecine-11-carboxamide], for which, in series [1], the IC50 came to 0.023 µM and the inhibition at 10 µM came to 100%. In series [2], the Metabolic Stability T½ [min] mouse was more than 60 min and the “Metabolic Stability 60 min mouse [% remain.]” value is listed as 85 % remain. In series [3], the Plasma Stability T½ [min] hum is more than 240 min and the “Plasma Stability 240 min hum [% remain.]” value was determined as 100 % remain. For the same molecule, in series [4], the Metabolic Stability T½ [min] hum is more than 60 min and the “Metabolic Stability 60 min hum [% remain.]” value turned out to be 55 % remain. Besides, in series [5], the Plasma Stability T½ [min] mouse is more than 240 min and the “Plasma Stability 240 min mouse [% remain.]” value was 100 % remain.

Regarding `CN(C)CCNC(=O)[C@@H]1CCC(=O)N(C)CC(=O)N2C[C@@H](NC(=O)Cc3ccc4ccccc4c3)C[C@H]2COc2ccc(F)cc2C(=O)N1C` [Ex. 48, (2S,11S,19aS)-N-[2-(dimethylamino)ethyl]-15-fluoro-7,12-dimethyl-2-{[2-(2-naphthyl)acetyl]amino}-5,8,13-trioxo-2,3,6,7,8,9,10,11,12,13,19,19a-dodecahydro-1H,5H-pyrrolo[2,1-c] [1,4,7,12] benzoxatriazacyclopentadecine-11-carboxamide], in series [1], 10 µM produced 29% inhibition.
